Experimental data taken from ChEMBL document CHEMBL2417394, “Exquisite selectivity for human toll-like receptor 8 in substituted furo[2,3-c]quinolines” (J Med Chem, 2013).
Activity calls are given as the source filed them.

Tests used:
[1] = target: T1, Toll-like receptor 9 (Homo sapiens) (UniProt Q9NR96); test: Antagonist activity at human TLR9 expressed in HEK293 cells co-transfected with MD2 and sAP assessed as inhibition of NF-kappaB activity by reporter gene assay; assay type: cell-based
T1 sequence (whole entry): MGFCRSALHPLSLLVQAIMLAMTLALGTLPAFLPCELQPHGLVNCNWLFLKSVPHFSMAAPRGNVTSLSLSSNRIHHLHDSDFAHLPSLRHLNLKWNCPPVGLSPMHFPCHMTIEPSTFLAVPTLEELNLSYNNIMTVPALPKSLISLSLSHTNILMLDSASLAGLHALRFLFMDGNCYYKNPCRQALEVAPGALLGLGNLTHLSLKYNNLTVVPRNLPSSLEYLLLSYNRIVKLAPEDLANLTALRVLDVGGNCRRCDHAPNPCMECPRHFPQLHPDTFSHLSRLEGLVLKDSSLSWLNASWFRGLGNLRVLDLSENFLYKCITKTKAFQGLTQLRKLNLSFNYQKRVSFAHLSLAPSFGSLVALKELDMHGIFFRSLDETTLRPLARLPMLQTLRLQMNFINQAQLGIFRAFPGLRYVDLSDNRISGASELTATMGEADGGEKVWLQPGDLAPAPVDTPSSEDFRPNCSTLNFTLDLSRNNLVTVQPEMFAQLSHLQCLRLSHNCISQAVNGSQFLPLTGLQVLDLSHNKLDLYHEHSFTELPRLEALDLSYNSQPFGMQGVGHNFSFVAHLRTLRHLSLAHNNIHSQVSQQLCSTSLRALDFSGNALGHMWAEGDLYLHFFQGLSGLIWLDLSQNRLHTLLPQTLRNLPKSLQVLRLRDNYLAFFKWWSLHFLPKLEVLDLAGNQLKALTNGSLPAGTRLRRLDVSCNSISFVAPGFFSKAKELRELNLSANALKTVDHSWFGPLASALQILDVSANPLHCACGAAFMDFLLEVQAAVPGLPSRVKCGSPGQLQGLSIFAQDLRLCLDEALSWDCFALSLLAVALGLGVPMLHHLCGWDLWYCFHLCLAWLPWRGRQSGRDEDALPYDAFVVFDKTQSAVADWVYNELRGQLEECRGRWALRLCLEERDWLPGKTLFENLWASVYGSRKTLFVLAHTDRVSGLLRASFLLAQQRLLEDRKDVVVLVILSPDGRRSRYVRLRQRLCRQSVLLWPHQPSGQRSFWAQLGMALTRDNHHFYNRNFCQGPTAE

[2] = target: Nucleotide-binding oligomerization domain-containing protein 2 (Homo sapiens) (UniProt Q9HC29); test: Antagonist activity at NOD2 (unknown origin)
[3] = target: Toll-like receptor 2 (Homo sapiens) (UniProt O60603); test: Antagonist activity at human TLR2 expressed in HEK293 cells co-transfected with MD2 and sAP assessed as inhibition of NF-kappaB activity by reporter gene assay; assay type: cell-based
[4] = target: Toll-like receptor 5 (Homo sapiens) (UniProt O60602); test: Antagonist activity at human TLR5 expressed in HEK293 cells co-transfected with MD2 and sAP assessed as inhibition of NF-kappaB activity by reporter gene assay; assay type: cell-based
[5] = target: T2, Toll-like receptor 8 (Homo sapiens) (UniProt Q9NR97); test: Antagonist activity at human TLR8 expressed in HEK293 cells co-transfected with MD2 and sAP assessed as inhibition of NF-kappaB activity by reporter gene assay; assay type: cell-based
T2 sequence (whole entry): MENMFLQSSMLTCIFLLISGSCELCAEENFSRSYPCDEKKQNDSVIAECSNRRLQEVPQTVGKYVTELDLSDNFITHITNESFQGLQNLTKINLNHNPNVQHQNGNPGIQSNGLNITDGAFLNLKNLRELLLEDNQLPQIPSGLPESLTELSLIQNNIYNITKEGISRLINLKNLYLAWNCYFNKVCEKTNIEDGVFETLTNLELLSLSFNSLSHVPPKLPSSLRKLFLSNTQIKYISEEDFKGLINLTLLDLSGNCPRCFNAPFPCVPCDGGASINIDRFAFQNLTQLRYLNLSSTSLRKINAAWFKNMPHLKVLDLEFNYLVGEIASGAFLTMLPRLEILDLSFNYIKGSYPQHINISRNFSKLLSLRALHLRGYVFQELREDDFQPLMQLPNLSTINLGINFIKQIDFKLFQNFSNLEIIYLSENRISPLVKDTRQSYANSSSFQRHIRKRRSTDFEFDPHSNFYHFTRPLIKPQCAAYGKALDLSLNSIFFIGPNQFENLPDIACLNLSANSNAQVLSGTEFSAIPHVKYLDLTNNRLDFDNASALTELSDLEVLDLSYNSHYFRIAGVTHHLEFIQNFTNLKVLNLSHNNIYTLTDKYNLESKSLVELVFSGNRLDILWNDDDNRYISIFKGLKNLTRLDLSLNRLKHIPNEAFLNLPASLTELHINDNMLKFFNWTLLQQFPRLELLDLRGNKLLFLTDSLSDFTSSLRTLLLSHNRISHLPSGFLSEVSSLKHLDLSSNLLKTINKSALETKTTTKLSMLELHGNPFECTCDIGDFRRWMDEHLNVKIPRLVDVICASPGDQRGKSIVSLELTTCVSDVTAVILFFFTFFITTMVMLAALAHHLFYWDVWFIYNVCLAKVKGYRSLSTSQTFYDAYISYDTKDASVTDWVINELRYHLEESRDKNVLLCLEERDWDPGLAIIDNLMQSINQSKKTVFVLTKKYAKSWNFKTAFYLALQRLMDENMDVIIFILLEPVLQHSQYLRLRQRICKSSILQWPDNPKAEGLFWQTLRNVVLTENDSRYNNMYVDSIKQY

Measured: inhibition

Toll-like receptor 5 (Homo sapiens), sequence (O60602 whole entry): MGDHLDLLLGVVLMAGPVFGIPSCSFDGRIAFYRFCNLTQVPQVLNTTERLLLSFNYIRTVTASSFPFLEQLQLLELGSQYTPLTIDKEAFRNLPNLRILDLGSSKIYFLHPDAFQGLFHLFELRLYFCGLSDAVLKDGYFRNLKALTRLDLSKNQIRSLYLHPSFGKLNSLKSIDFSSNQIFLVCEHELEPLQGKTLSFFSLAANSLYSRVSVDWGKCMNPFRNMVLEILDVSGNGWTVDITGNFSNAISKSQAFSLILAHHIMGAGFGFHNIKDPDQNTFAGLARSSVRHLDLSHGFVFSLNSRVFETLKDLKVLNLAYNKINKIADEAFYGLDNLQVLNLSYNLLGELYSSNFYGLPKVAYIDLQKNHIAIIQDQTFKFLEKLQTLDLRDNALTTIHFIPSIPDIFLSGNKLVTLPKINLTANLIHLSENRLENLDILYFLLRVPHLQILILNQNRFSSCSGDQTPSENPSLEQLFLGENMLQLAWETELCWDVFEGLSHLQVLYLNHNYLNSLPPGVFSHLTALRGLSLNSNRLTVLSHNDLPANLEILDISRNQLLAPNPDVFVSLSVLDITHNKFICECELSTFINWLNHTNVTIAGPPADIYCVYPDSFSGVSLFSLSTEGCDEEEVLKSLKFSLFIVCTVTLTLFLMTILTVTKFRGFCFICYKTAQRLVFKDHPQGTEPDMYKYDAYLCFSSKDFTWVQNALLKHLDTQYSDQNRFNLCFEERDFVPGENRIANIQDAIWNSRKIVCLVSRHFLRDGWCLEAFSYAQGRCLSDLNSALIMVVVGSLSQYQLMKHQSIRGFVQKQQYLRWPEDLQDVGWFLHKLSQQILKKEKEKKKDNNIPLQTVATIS
Toll-like receptor 2 (Homo sapiens), sequence (O60603 whole entry): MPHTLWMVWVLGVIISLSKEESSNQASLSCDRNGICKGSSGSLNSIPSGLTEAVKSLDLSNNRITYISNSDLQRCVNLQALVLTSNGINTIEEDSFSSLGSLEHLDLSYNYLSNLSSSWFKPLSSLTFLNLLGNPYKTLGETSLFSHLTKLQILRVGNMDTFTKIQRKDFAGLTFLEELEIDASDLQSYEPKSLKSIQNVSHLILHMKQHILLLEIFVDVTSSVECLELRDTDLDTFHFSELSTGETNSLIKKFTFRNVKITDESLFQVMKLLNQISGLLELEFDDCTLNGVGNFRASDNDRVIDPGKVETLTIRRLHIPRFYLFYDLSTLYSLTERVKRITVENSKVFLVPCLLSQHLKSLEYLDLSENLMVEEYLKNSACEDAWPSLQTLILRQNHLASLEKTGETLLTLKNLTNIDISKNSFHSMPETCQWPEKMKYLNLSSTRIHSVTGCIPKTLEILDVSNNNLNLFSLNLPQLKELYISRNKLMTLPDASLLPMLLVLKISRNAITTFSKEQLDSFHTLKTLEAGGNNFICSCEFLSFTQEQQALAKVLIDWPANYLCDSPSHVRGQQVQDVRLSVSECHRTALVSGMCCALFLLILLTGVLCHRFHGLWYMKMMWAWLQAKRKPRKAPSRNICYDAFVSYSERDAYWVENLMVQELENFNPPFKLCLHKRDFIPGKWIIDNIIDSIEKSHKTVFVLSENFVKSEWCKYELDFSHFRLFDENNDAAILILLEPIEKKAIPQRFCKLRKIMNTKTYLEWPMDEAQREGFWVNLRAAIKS
Nucleotide-binding oligomerization domain-containing protein 2 (Homo sapiens), sequence (Q9HC29 whole entry, the tested form may be a part): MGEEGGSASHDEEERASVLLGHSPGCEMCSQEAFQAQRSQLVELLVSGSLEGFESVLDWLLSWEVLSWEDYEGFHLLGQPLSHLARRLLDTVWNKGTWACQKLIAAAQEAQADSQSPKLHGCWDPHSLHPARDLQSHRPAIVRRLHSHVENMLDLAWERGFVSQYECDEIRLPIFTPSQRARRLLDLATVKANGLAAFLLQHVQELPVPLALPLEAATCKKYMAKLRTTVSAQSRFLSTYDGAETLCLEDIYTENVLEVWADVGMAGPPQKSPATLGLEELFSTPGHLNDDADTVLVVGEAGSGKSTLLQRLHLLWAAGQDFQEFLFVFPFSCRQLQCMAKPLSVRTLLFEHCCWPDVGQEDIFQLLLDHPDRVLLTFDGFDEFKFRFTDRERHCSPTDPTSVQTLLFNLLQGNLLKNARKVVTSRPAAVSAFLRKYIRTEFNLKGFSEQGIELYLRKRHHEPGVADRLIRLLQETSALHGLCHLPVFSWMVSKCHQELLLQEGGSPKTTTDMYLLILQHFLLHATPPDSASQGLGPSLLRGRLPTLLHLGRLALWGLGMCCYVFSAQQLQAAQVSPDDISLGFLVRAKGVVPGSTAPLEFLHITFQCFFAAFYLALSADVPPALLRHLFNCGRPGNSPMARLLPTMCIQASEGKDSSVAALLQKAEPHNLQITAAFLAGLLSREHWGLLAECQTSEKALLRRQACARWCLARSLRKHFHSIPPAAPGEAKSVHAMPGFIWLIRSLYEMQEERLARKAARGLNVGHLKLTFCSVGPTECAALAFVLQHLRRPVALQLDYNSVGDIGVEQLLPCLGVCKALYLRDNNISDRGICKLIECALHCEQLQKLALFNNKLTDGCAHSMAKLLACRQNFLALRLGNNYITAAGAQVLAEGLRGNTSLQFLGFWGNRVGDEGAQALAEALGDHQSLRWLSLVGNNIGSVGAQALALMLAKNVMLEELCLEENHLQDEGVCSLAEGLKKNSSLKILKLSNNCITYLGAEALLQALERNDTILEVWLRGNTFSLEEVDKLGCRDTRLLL

CCCc1cc2c(N)nc3ccccc3c2o1
inactive: all assays above

CCCCc1cc2c(nc(N)c3ccccc32)o1
inactive: all assays above

Nc1nc2ccccc2c2oc(-c3ccccc3)cc12
inactive: all assays above

CCCCc1cc2c(N)nc3ccccc3c2o1
inactive: all assays above
